From patent US20210077382A1, “COMPOSITIONS, DEVICES, AND METHODS FOR THE TREATMENT OF OPIOID-RECEPTOR-MEDIATED CONDITIONS” (Opiant Phamaceuticals, Inc., priority 2016, published 2021)

Assay: Clinical pharmacokinetic crossover study of IN, IM and oral naltrexone; plasma naltrexone and 6β-naltrexol by LC-MS/MS
Text: Study Goals. […] Secondary endpoints included adverse events (AEs), vital signs (heart rate, sitting blood pressure, and respiration rate), electrocardiogram (ECG), clinical laboratory changes and nasal irritation using the nasal irritation scale.
Study design. […] This was an in-patient open-label, crossover study involving approximately 14 healthy volunteers. […] Subjects stayed in the in-patient facility for 13 days to complete the entire study. Subjects were called 3 to 5 days after discharge to inquire concerning AEs and concomitant medications since discharge. Informed consent was obtained from all subjects, and all were screened for eligibility to participate in the study, including medical history, physical examination, clinical chemistry, coagulation markers, hematology, infectious disease serology, urinalysis, urine drug and alcohol toxicology screen, vital signs and ECG.
On days of study drug administration, a 12-lead ECG was performed approximately 1 hour prior to dosing and at approximately 1 and 4 hours post-dose. Vital signs were measured pre-dose and about 1 and 4 hours post-dose.
Study Drugs and Dosing. […] The IN (40 mg/mL) formulations were made by the staff pharmacist at Vince & Associates; the vehicle for the IN formulations was sterile water for injection. The IM formulation (2 mg/mL) was made by the staff pharmacist at Vince & Associates; the vehicle was sterile saline for injection.
Subjects stayed in the in-patient facility for 13 days to complete the entire study and were discharged 2 days after the fourth dose.
PK Assessments. […] Plasma was separated from whole blood and stored frozen at […] until assayed.
Analysis. […] Dose-adjusted values for AUCs and Cmax were calculated. The relative extent of IN and PO absorption (IN and PO versus IM) will be estimated from the dose-corrected AUCs.

Question: For `Oc1ccc2c3c1O[C@H]1[C@H](O)CC[C@@]4(O)[C@@H](C2)N(CC2CC2)CC[C@]314` [6β-naltrexol], which “λz of 6β-naltrexol, mean (CV %)” value (naltrexone 4 mg IN plus […] Intravail, N = 12) is on record?
Answer: 0.0553 (15.1) 1/h

Question: And the “AUC0-inf of 6β-naltrexol, mean (CV %)” value (naltrexone 4 mg IN, N = 13)?
Answer: 44.0 ng·h/mL

Question: And the “AUC0-inf/Dose of 6β-naltrexol, mean (CV %)” value (naltrexone 4 mg IN, N = 13)?
Answer: 12.2 (23.1) h · ng/mL/mg

Question: And the “AUC0-t of 6β-naltrexol, mean (CV %)” value (naltrexone 4 mg IN, N = 13)?
Answer: 40.3 (23.3) h · ng/mL

Question: And the “AUC0-t/Dose of 6β-naltrexol, mean (CV %)” value (naltrexone 4 mg IN, N = 13)?
Answer: 11.1 (23.3) h · ng/mL/mg

Question: And the “AUCextrap of 6β-naltrexol, mean (CV %)” value (naltrexone 4 mg IN, N = 13)?
Answer: 8.57 (46.1) %

Question: And the “Cmax of 6β-naltrexol, mean (CV %)” value (naltrexone 4 mg IN, N = 13)?
Answer: 3.01 (33.2) ng/mL

Question: What about the “Cmax/Dose of 6β-naltrexol, mean (CV %)” value (naltrexone 4 mg IN, N = 13) of the same compound?
Answer: 0.833 ng/mL/mg

Question: And the “Tmax of 6β-naltrexol, median (minimum, maximum)” value (naltrexone 4 mg IN, N = 13)?
Answer: 2.00 h

Question: And the “t1/2 of 6β-naltrexol, mean (CV %)” value (naltrexone 4 mg IN, N = 13)?
Answer: 13.7 (22.7) h

Question: And the “λz of 6β-naltrexol, mean (CV %)” value (naltrexone 4 mg IN, N = 13)?
Answer: 0.0530 h⁻¹

Question: What about the “Cmax/Dose of 6β-naltrexol, mean (CV %)” value (naltrexone 4 mg IN, N = 13, listed as 6β-Naltrexol) of the same compound?
Answer: 0.833 (33.2) ng/mL/mg

Question: What about the “Mean concentration of 6β-naltrexol” value (naltrexone 4 mg IN, hour 0) of the same compound?
Answer: 0 ng/mL

Question: What about the “Mean concentration of 6β-naltrexol” value (naltrexone 4 mg IN, hour 0.042) of the same compound?
Answer: 0 ng/mL

Question: And the “Mean concentration of 6β-naltrexol” value (naltrexone 4 mg IN, hour 0.083)?
Answer: 0.0321 ng/mL

Question: And the “Mean concentration of 6β-naltrexol” value (naltrexone 4 mg IN, hour 0.17)?
Answer: 0.196 ng/mL

Question: And the “Mean concentration of 6β-naltrexol” value (naltrexone 4 mg IN, hour 0.25)?
Answer: 0.45 ng/mL

Question: And the “Mean concentration of 6β-naltrexol” value (naltrexone 4 mg IN, hour 0.33)?
Answer: 0.693 ng/mL

Question: What about the “Mean concentration of 6β-naltrexol” value (naltrexone 4 mg IN, hour 0.5) of the same compound?
Answer: 1.11 ng/mL

Question: And the “Mean concentration of 6β-naltrexol” value (naltrexone 4 mg IN, hour 0.75)?
Answer: 1.82 ng/mL

Question: And the “Mean concentration of 6β-naltrexol” value (naltrexone 4 mg IN, hour 1)?
Answer: 1.83 ng/mL

Question: And the “Mean concentration of 6β-naltrexol” value (naltrexone 4 mg IN, hour 2)?
Answer: 2.68 ng/mL

Question: What about the “Mean concentration of 6β-naltrexol” value (naltrexone 4 mg IN, hour 3) of the same compound?
Answer: 2.61 ng/mL

Question: What about the “Mean concentration of 6β-naltrexol” value (naltrexone 4 mg IN, hour 4) of the same compound?
Answer: 2.37 ng/mL

Question: And the “Mean concentration of 6β-naltrexol” value (naltrexone 4 mg IN, hour 6)?
Answer: 1.97 ng/mL

Question: What about the “Mean concentration of 6β-naltrexol” value (naltrexone 4 mg IN, hour 8) of the same compound?
Answer: 1.62 ng/mL

Question: And the “Mean concentration of 6β-naltrexol” value (naltrexone 4 mg IN, hour 12)?
Answer: 1.26 ng/mL

Question: What about the “Mean concentration of 6β-naltrexol” value (naltrexone 4 mg IN, hour 16) of the same compound?
Answer: 0.919 ng/mL

Question: What about the “Mean concentration of 6β-naltrexol” value (naltrexone 4 mg IN, hour 24) of the same compound?
Answer: 0.602 ng/mL

Question: What about the “Mean concentration of 6β-naltrexol” value (naltrexone 4 mg IN, hour 30) of the same compound?
Answer: 0.418 ng/mL

Question: What about the “Mean concentration of 6β-naltrexol” value (naltrexone 4 mg IN, hour 36) of the same compound?
Answer: 0.292 ng/mL

Question: What about the “Mean concentration of 6β-naltrexol” value (naltrexone 4 mg IN, hour 48) of the same compound?
Answer: 0.184 ng/mL

Question: What about the “AUC0-inf of 6β-naltrexol, mean (CV %)” value (naltrexone 50 mg Oral, N = 10) of the same compound?
Answer: 675 ng·h/mL

Question: What about the “AUC0-inf/Dose of 6β-naltrexol, mean (CV %)” value (naltrexone 50 mg Oral, N = 10) of the same compound?
Answer: 14.9 (19.9) h · ng/mL/mg

Question: What about the “AUC0-t of 6β-naltrexol, mean (CV %)” value (naltrexone 50 mg Oral, N = 10) of the same compound?
Answer: 614 (19.5) h · ng/mL

Question: And the “AUC0-t/Dose of 6β-naltrexol, mean (CV %)” value (naltrexone 50 mg Oral, N = 10)?
Answer: 13.6 (19.5) h · ng/mL/mg

Question: And the “AUCextrap of 6β-naltrexol, mean (CV %)” value (naltrexone 50 mg Oral, N = 10)?
Answer: 8.79 (57.3) %

Question: What about the “Cmax of 6β-naltrexol, mean (CV %)” value (naltrexone 50 mg Oral, N = 10) of the same compound?
Answer: 90.7 ng/mL

Question: What about the “Cmax/Dose of 6β-naltrexol, mean (CV %)” value (naltrexone 50 mg Oral, N = 10) of the same compound?
Answer: 2.00 ng/mL/mg

Question: And the “Tmax of 6β-naltrexol, median (minimum, maximum)” value (naltrexone 50 mg Oral, N = 10)?
Answer: 0.63 h

Question: And the “t1/2 of 6β-naltrexol, mean (CV %)” value (naltrexone 50 mg Oral, N = 10)?
Answer: 13.9 (15.9) h

Question: What about the “λz of 6β-naltrexol, mean (CV %)” value (naltrexone 50 mg Oral, N = 10) of the same compound?
Answer: 0.0510 (15.8) 1/h

Question: What about the “Cmax/Dose of 6β-naltrexol, mean (CV %)” value (naltrexone 50 mg Oral, N = 10, listed as 6β-Naltrexol) of the same compound?
Answer: 2.00 (30.3) ng/mL/mg

Question: What about the “Mean concentration of 6β-naltrexol” value (naltrexone 50 mg Oral, hour 0) of the same compound?
Answer: 0.0454 ng/mL

Question: And the “Mean concentration of 6β-naltrexol” value (naltrexone 50 mg Oral, hour 0.042)?
Answer: 0.0448 ng/mL

Question: What about the “Mean concentration of 6β-naltrexol” value (naltrexone 50 mg Oral, hour 0.083) of the same compound?
Answer: 1.4 ng/mL

Question: What about the “Mean concentration of 6β-naltrexol” value (naltrexone 50 mg Oral, hour 0.17) of the same compound?
Answer: 14.2 ng/mL

Question: And the “Mean concentration of 6β-naltrexol” value (naltrexone 50 mg Oral, hour 0.25)?
Answer: 31.6 ng/mL

Question: And the “Mean concentration of 6β-naltrexol” value (naltrexone 50 mg Oral, hour 0.33)?
Answer: 45.5 ng/mL

Question: What about the “Mean concentration of 6β-naltrexol” value (naltrexone 50 mg Oral, hour 0.5) of the same compound?
Answer: 68.7 ng/mL

Question: What about the “Mean concentration of 6β-naltrexol” value (naltrexone 50 mg Oral, hour 0.75) of the same compound?
Answer: 60.8 ng/mL

Question: And the “Mean concentration of 6β-naltrexol” value (naltrexone 50 mg Oral, hour 1)?
Answer: 58.6 ng/mL

Question: What about the “Mean concentration of 6β-naltrexol” value (naltrexone 50 mg Oral, hour 2) of the same compound?
Answer: 54 ng/mL

Question: What about the “Mean concentration of 6β-naltrexol” value (naltrexone 50 mg Oral, hour 3) of the same compound?
Answer: 45.8 ng/mL

Question: What about the “Mean concentration of 6β-naltrexol” value (naltrexone 50 mg Oral, hour 4) of the same compound?
Answer: 38 ng/mL

Question: And the “Mean concentration of 6β-naltrexol” value (naltrexone 50 mg Oral, hour 6)?
Answer: 28.5 ng/mL

Question: And the “Mean concentration of 6β-naltrexol” value (naltrexone 50 mg Oral, hour 8)?
Answer: 22.2 ng/mL

Question: And the “Mean concentration of 6β-naltrexol” value (naltrexone 50 mg Oral, hour 12)?
Answer: 15.4 ng/mL

Question: What about the “Mean concentration of 6β-naltrexol” value (naltrexone 50 mg Oral, hour 16) of the same compound?
Answer: 11.4 ng/mL

Question: What about the “Mean concentration of 6β-naltrexol” value (naltrexone 50 mg Oral, hour 24) of the same compound?
Answer: 8.14 ng/mL

Question: And the “Mean concentration of 6β-naltrexol” value (naltrexone 50 mg Oral, hour 30)?
Answer: 5.93 ng/mL

Question: What about the “Mean concentration of 6β-naltrexol” value (naltrexone 50 mg Oral, hour 36) of the same compound?
Answer: 4.35 ng/mL

Question: And the “Mean concentration of 6β-naltrexol” value (naltrexone 50 mg Oral, hour 48)?
Answer: 2.43 ng/mL

Question: What about the “Dose-adjusted Cmax of 6β-naltrexol after oral administration, higher than after IN and IM doses” value (oral vs IN and IM) of the same compound?
Answer: approximately 2 fold
